Our source for the melting point values is a melting point compilation (Tetko et al.; mined from patent text by program, amines drawn as free bases though some values may be those of a salt).

Each structure is given as a SMILES string. Where only a bound is given, the exact number is not on record here.

The term melting point denotes the temperature of the solid-liquid transition.

As for `CC(C)n1nc(-c2cc(C(=O)NCc3ccccn3)cnc2-c2ccccc2)ccc1=O`, the melting point was in the range of 193 to 194 °C. In the case of `Cc1nn(C)c2c(Cl)ncnc12` it was 92 to 95 °C; in that of `COc1ccc(-c2nccn2N=Cc2ccc(N(C)C)cc2)cc1`, 108 °C.

For the compound `CCCCN(CCCC)c1ccc(C=CC=Cc2ccc(C=CC3=C(C#N)C(=C(C#N)C#N)OC3(C)C)s2)c(OC)c1`, the melting point is 185 to 187 °C. `O=c1[nH]c(=O)n2c(c1-c1ccccc1)SCCC2` registered a melting point greater than 300 °C. As for `Cc1[nH]cnc1CON1C(=O)c2ccccc2C1=O`, the figure is 155 to 156 °C; as for `CCCCCCc1c(F)cc(C2C=CC(CCCCC)=CC2)cc1F` (centres undefined), 35 °C; as for `CCOC(=O)Nc1c(OC)cc(CC(C#N)=CNc2ccccc2)cc1OC`, 150 to 151 °C. As for `Cc1nc(N)c2nc(C)n(CCCCNS(C)(=O)=O)c2c1C`, the figure is 228 to 230 °C; as for `O=C(O)Cc1cnc(Cc2ccc(NC(=O)c3ccc(Cl)c(Cl)c3)cc2)n2ccnc12`, 185 to 188 °C; as for `Cc1c(F)c(N2CCNCC2)cc2c1c(=O)c(C(=O)O)cn2C1CC1`, 226 to 228 °C.

As for `C=C(Cl)CONC(=O)c1nc(-c2ccc(Cl)c(OC)c2F)cc(N)c1Cl`, the melting point lay in the range of 146 to 148 °C. In the case of `CCCCOc1cc(I)c(OCCCC)cc1I` it was 86 to 87.5 °C. As for `O=C(Nc1cccnc1)N1CCN(c2nc(-c3cccc(F)c3F)cs2)CC1`, the figure is 172 to 173 °C; as for `Cc1cc(Cl)ccc1OC(Cn1cncn1)C(O)C(C)(C)C` (centres undefined), 124 to 126 °C.

`COC(CNC1=Nc2ccc(Cl)cc2C(c2ccccc2)N1C)OC` (centres undefined) came in with a melting point of 104 to 105 °C. Compound `OCc1ccc(Cn2c(CC3CCN(Cc4ccccc4)CC3)nc3ccccc32)o1` came in with a melting point of 144 °C.

Compound `COCCOCOc1ccccc1N1C(C(C)(C)C)ONC1(Br)C(C)(C)C` (centres undefined) gave a melting point of 89 to 91 °C. In the case of `COc1ccc2c(c1)OCC(C(=O)O)O2` (centres undefined) it was 120 to 121 °C. Regarding `CCn1c2ccccc2c2cc(OC)c(C#N)cc21`, the melting point is 145 to 155 °C. As for `COc1cccc(-c2cccc(OC3SCC(O)C(O)C3O)c2)n1` (centres undefined), the figure is 206 °C. In the case of `CC(=O)Nc1cc(C=CN(C)C)c([N+](=O)[O-])cn1` it was 193 to 196 °C. In the case of `O=C1OC(=O)c2cc3cccc([N+](=O)[O-])c3c3cccc1c23` it was 246 °C; in that of `CCOC(=O)c1sc(Cl)nc1-c1ccc(Cl)cc1`, 119 to 120 °C. Regarding `COc1ccc2nc(-c3cc(C)c(OCCN4CCCC4)c(C)c3)[nH]c(=O)c2c1`, the melting point was 201 to 203 °C. Compound `O=C1NC(=Cc2c[nH]c3ccccc23)C(=O)N1Cc1cc(C(F)(F)F)cc(C(F)(F)F)c1` displayed a melting point of 151 to 153 °C. As to `Cc1nc2cc(Sc3cccc4cnccc34)c([N+](=O)[O-])cc2c(=O)[nH]1`, the melting point is greater than 270 °C. As for `COC(=O)CC[C@@H](CF)NC(=O)OCc1ccccc1`, the figure is 46 to 48 °C; as for `CCCCCCN(C)c1ccc(C=C2SC(=S)N(CC(=O)NS(=O)(=O)C(F)(F)F)C2=O)cc1`, 94 to 97 °C; as for `Cc1nc2c(Br)cccc2c(=O)n1C1CCC(=O)NC1=O` (centres undefined), 307 to 309 °C.

With `CC(Br)C(=O)c1ccc(OC(=O)C(C)(C)C)c(OC(=O)C(C)(C)C)c1` (centres undefined), the melting point was in the range of 58 to 60 °C. In the case of `CC(CCNC1=Nc2ccc(S(=O)(=O)N(C)C)c3cccc1c23)n1ccnc1` (centres undefined) it was 221 to 222 °C; in that of `Cc1nc2c(cc1C(=O)N(C(=N)N)C(=O)OC(C)(C)C)CCCCC2CO` (centres undefined), 98 to 100 °C; in that of `CC(C)N1C(=O)c2cnc(-c3ccccc3)nc2N(C(=O)CN2CCN(C)CC2)c2ccccc21`, 168 to 170 °C. In the case of `COc1ccc(C(=O)Nc2ccccc2)cc1NCc1cc(F)cc(F)c1` it was 175 to 177 °C; in that of `O=c1ccoc(C(O)c2ccccc2)c1OCc1ccccc1` (centres undefined), 121 to 122 °C; in that of `Cc1cc(C2=CCN(S(=O)(=O)C3(C(=O)O)CCOCC3)CC2)ccc1-c1ccccc1`, 211 to 213 °C.

`N#Cc1ccc2c(c1)Sc1ccc(N)cc1C=C2` registered a melting point of 181 to 183 °C. As for `C=C(Oc1cc(-n2c(=O)cc(C(F)(F)F)[nH]c2=O)c(F)cc1Cl)C(=O)OC`, the figure is 171 to 173 °C. In the case of `COC(=O)CCCC(N)=O` it was 80 °C; in that of `Cc1cc(C)c(Nc2nc(C)ccc2S(=O)(=O)c2ccc(OCc3ccc(C#N)cc3)cc2)c(C)c1`, 208 to 210 °C; in that of `Cc1ccc2c(c1)c(=O)c(CO)cn2C`, 171 to 173 °C. As for `CCOC(=O)C(C)(C)Oc1ccc(C(=O)c2ccccc2)cc1`, the figure is 82 to 85 °C. Regarding `CN(Cc1cc2c3c(c1)c(=O)c(C(=O)NCc1ccc(F)cc1)cn3CC(=O)N2C)C[C@@H](O)c1ccco1`, the melting point is 150 to 152 °C. `CN(C)CC(C(O)c1ccc([N+](=O)[O-])cc1)N1CCC(Cc2ccccc2)CC1` (centres undefined): the melting point was in the range of 132 to 135 °C. In the case of `FC(F)(F)c1cccc(Nc2nc(Cl)nc3nc[nH]c23)c1` it was 248 to 250 °C.

On to `CC#CCOc1ccc(S(=O)(=O)NC2(C(=O)OC)CCCC2)cc1`, for which the melting point was 81 to 83 °C. As for `CCOC(=O)Cn1c(=O)sc2cccc(Oc3ccccc3)c21`, the figure is 96 to 99 °C; as for `N#Cc1cccc(C2=Nc3ccc(C#CC4=CC(=O)CCC4)cc3NC(=O)C2)c1`, 110 °C; as for `Nc1nc(=O)n(C(=O)c2cc(F)cc(F)c2)cc1F`, 227 to 231 °C. Compound `CC(C)(C)[Si](C)(C)O[C@@H]1CO[C@H](c2cccnc2)[C@@H]1CCC(=O)O` displayed a melting point of 93 to 94 °C. In the case of `CN1Cc2c(cc(CN3CCOCC3)n2C)C(c2ccccc2)C1` (centres undefined) it was 96 to 97 °C. In the case of `CCOC(=O)c1cc([N+](=O)[O-])cn1CCC(C)C` it was 46 to 47 °C; in that of `CN1CC(CCCl)Oc2cc3ccccc3cc2C1=S` (centres undefined), 166 to 168 °C. In the case of `O=C(O)c1ccc(OCc2ccccc2)c(Cl)c1` it was 211 to 213 °C; in that of `CN1CCC(c2c[nH]c3cnc(-n4cncn4)cc23)CC1`, 209 to 211 °C. Consider `Cn1cc(Br)c(=O)c(-c2cccc(C(F)(F)F)c2)c1`, for which the melting point was in the range of 167 to 169 °C. As for `CN(C)C1(c2ccccc2)CCC(CNC(=O)N2CCC(c3c[nH]c4ccc(Cl)cc34)CC2)CC1` (centres undefined), the figure is 140 to 143 °C; as for `CCCCCCCCCCCCCCCC(=O)Nc1nc(=O)n(C2OC(C)C(O)C2O)cc1F` (centres undefined), 93 to 95 °C; as for `CC12CCCCC1CCC1C2CCC2(C)C(C(O)c3ccccc3)CCC12` (centres undefined), 129 to 130 °C. As for `NS(=O)(=O)c1ccc2c(c1)C(=O)CCC2`, the figure is 197 to 198 °C. As for `CN1CCN(c2ccc3nc(-c4ccc(F)cc4)c(-c4ccncc4)n3n2)CC1`, the figure is 250 °C; as for `O=C(Nc1ccc(CCc2ccc(Cl)c(Cl)c2)cc1)C1CSc2ccccc2C1=O` (centres undefined), 234 to 236 °C. Consider `C=Cc1[nH]c(=O)c2c(ccc3nc(Nc4c(Cl)cccc4Cl)n(C)c32)c1C`, for which the melting point is greater than 300 °C.
